Data on 3 compounds can be found in patent US20100130737A1, “Regulating Agent of GPR34 Receptor Function” (TAKEDA PHARMACEUTICAL COMPANY LIMITED, priority 2005, published 2010).

Data set [1] has as its target T1, human GPR34 (Homo sapiens, UniProt Q9UPC5). Description: Human GPR34 antagonist activity as indicated by cAMP in human GPR34-expressing CHO cells. Type of data set: cell-based. Also on record: expressed in transfected cells. Particulars: for cAMP (%): buffer only = 0%, 2.5 μM Forskolin = 100%. The procedure:
Human GPR34-expressing CHO cells were maintained in nucleic acid-free MEM-a (Invitrogen) containing 10% dialyzed FBS (Invitrogen) and penicillin and streptomycin (BioWhittaker) (hereunder described as culture medium), and on the day before assay the cells were stripped with trypsin/EDTA (Invitrogen), centrifuged, re-suspended in culture medium and seeded 2×10^5 per well, 1 ml/well on a 24-well plate (Nunc). The seeded cells were cultured overnight at 37° C. in a CO2 incubator, and subjected to cAMP assay the next day.
The plate was washed twice, 500 μL/well with Hank's balanced salt solution (HBSS, Invitrogen) containing 20 mM HEPES (1 M HEPES solution, Dojindo) with 0.2 mM 3-isobutyl-1-methylxanthine (IBMX, Wako Pure Chemical) added thereto (hereunder described as assay buffer (HBSS+HEPES-FIBMX)), and kept warm for 30 minutes in a water bath at 37° C. Next, 250 μL of assay buffer (HBSS+HEPES+IBMX) was substituted, and the plate was kept for a further 15 minutes in a water bath at 37° C. 2 μl of GPR34 antagonist compound solution at 250× the final concentration was added and gently stirred with a plate mixer, 2 μL, of lysoPS (Sigma or Alexis) at 250× the final concentration and 5 μM (2× the final concentration) of Forskolin (Wako Pure Chemical) were added, and 250 μL, of assay buffer (HBSS+HEPES+IBMX) was added and reacted for 30 minutes in a water bath at 37° C. In the case of the human GPR34-expressing CHO cells, 2 μL of 50 μM lysoPS was added so that the final concentration would be roughly the EC50 value of 0.2 μM. After completion of the reaction, intracellular cAMP was detected by competitive EIA using a cAMP Screen System (Applied Biosystems). After completion of the assay, 200 μL, of the Assay/lysis buffer for the cAMP Screen System was substituted, and intracellular cAMP was extracted by maintaining the cells for about 40 minutes at 37° C. EIA was then performed in accordance with the cAMP Screen Systems protocols to assay intracellular cAMP.
Relative percentage values were calculated by Microsoft Excel with the cAMP level with only assay buffer (HBSS+HEPES+IBMX) added (“None” in the table) given as 0%, and the cAMP level with the final concentration 2.5 μM Forskolin added given as 100%.

The test system of data set [2] is rat peritoneal mast cells. Kind of data set: Degranulation inhibiting activity in rat peritoneal mast cells (β-hexosaminidase release). In kind it is cell-based. Particulars: 100 ng/ml DNP-BSA stimulus + 3 μM lysoPS added simultaneously. Here is the method:
Ice-cooled mast cell medium (hereunder called MCM: 150 mM NaCl, 3.7 mM KCl, 3.0 mM NaH2PO4, 3.5 mM KH2PO4, 5.6 mM (D)-Glucose, 0.1% bovine serum albumin (BSA), 0.1% gelatin, 10 U/ml heparin, pH 6.8) was injected intraperitoneally into rats, about 40 ml per rat, the abdomens were massaged for about 2 minutes and then opened along the median line, and ascites was collected. The collected ascites were filtered with a cell strainer (Becton Dickinson) and centrifuged for 7 minutes at 50×g, and the precipitated cells were suspended in MCM and then centrifuged again for 7 minutes at 50×g. The precipitated cells were suspended in 5 ml of MCM, layered over 2 ml of 32% (w/v) BSA solution (dissolved in 0.9% NaCL), and left for 20 minutes at room temperature. This was centrifuged for 15 minutes at room temperature at 300×g, the cells between the MCM and BSA solution were discarded, and the precipitated cells were suspended in MCM and washed twice by being centrifuged for 5 minutes at 300×g. The precipitated cells were suspended in assay buffer (150 mM NaCl, 3.7 mM KCl, 3.0 mM NaH2PO4, 3.5 mM KH2PO4, 0.9 mM CaCl2, 5.6 mM (D)-Glucose, 0.01% BSA, pH 6.8), and these cells were used in the following test.
RPMC cells suspended in assay buffer were passively sensitized by adding 10 μg/ml of monoclonal mouse anti-DNP-IgE (Seikagaku) and leaving them for 30 minutes on ice. After 5 minutes of centrifugation at 300×g, the precipitated cells were washed 3 times with assay buffer. The RPMC cells suspended in assay buffer were dispensed on 96-well V-bottom plates, 2×10^4 cells per well. The assay was performed with n=3 under each set of reaction conditions. The plates were maintained for 5 minutes at 37° C., the test compound was added, and after 15 minutes lysoPS (Sigma) was added to a final concentration of 3 μM and DNP-BSA (Calbiochem) to a final concentration of 100 ng/ml for a final capacity of 200 and left on a water bath at 37° C. After 20 minutes, the plate was ice cooled to stop RPMC activation, followed by 5 minutes of centrifugation at 300×g, and β-hexosaminidase activity in the supernatant was measured using 4-methylumbelliferyl-2-acetamido-2-deoxy-β-D-glucopyranoside (Wako Pure Chemical) degradation as the indicator.

For data set [3], the system named is rat peritoneal mast cells. The data set is described as above. Type of data set: cell-based.
Data set [4] concerns the target T1, human GPR34. Description: Reactivity of human GPR34CHO cell strain stably expressing Gα16 to lysophosphatidyl serine (FLIPR). In kind it is cell-based. Also noted: expressed in transfected cells; host or cells: CHO cells (human GPR34CHO line) stably transfected with pCR3.1 human lung Gα16. The settings on record: Fluo 3-AM, 3 minutes after addition; concentration-dependent. Here is the method: The reactivity of the human GPR34CHO cell strain stably expressing Gα16 to lysophosphatidyl serine (lysoPS) was investigated by the FLIPR (Molecular Devices) assay method. The fluorescent calcium indicator Fluo 3-AM (Wako Pure Chemical) was incorporated into the human GPR34CHO cell strain stably expressing Gα16, and the cells were washed with assay buffer. Various concentrations of 50 μl lysophosphatidyl serine solution were added to cells immersed in 100 μl of assay buffer, and the intracellular fluorescent strength 3 minutes after addition was measured by FLIPR.

T1 sequence (Q9UPC5 whole entry): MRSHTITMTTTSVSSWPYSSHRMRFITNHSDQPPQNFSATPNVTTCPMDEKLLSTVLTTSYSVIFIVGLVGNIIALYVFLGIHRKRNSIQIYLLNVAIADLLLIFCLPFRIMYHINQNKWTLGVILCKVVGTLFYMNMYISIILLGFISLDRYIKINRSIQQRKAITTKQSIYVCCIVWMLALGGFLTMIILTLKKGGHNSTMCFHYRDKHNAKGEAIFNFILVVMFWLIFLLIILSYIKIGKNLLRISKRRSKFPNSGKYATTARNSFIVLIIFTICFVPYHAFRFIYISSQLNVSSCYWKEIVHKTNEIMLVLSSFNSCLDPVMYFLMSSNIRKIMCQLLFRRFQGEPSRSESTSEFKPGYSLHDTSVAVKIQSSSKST

Take `O=C(Cc1ccc(OCc2ccc(F)cc2)cc1)NC1(C(=O)O)Cc2ccc(-c3ccc(Cl)cc3)cc2C1` (centres unmarked) [Example B134]: the melting point lay in the range of 208 to 209 °C. For the same compound, the “cAMP (%)” value at human GPR34 [1] (10 μM compound + 2.5 μM Forskolin + 0.2 μM LysoPS) was 299%. In addition, at human GPR34 [1] (at 10 μM), the “restoration of cAMP levels (in words)” value is “restored cAMP levels to at or above the level before Forskolin stimulus”.

With lisophosphatidylserine [lysoPS], the RPMC degranulation is 36.7% in data set [2]; 8.4% in data set [3] (100 ng/ml DNP-BSA stimulus + 0.1 μM lysoPS added simultaneously); 14.7% in data set [3] (100 ng/ml DNP-BSA stimulus + 0.3 μM lysoPS added simultaneously); 26.0% in data set [3] (100 ng/ml DNP-BSA stimulus + 1 μM lysoPS added simultaneously); 45.2% in data set [3] (100 ng/ml DNP-BSA stimulus + 10 μM lysoPS added simultaneously). For the same compound, the “cAMP (%)” value on human GPR34 [1] (0.2 μM LysoPS + 2.5 μM Forskolin) amounted to 43%. Moreover, on human GPR34 [1] (human GPR34-expressing CHO cells, cAMP assay, read-out: EC50 value of lysoPS), the EC50 is about 200 nM.

For the compound lysophosphatidyl serine, the “intracellular fluorescent strength (intracellular calcium), in words” value at human GPR34 [4] is listed as “caused a rise in intracellular fluorescent strength”.

One may read the melting point as the temperature of the solid-liquid transition. For orientation: EC50 means the concentration at which the effect is half-maximal.
